ChEMBL document CHEMBL1152362, “Asperelines A-F, peptaibols from the marine-derived fungus Trichoderma asperellum” (J Nat Prod, 2009)
Non-standard residues stand in square brackets, D forms with d. Residues, ends and D or L forms follow the SMILES beside them. *: point of attachment. Prolinol = OC[C@@H]1CCCN1*; Aib = CC(C)(N)C(=O)O

Experiments:
Staphylococcus aureus = experiment: Antimicrobial activity against Staphylococcus aureus; type: functional
Alternaria solani = experiment: Antimicrobial activity against Alternaria solani; type: functional, organism-based
Escherichia coli = experiment: Antimicrobial activity against Escherichia coli; type: functional
Pyricularia oryzae = experiment: Antimicrobial activity against Pyricularia oryzae; type: functional, organism-based

SMILES	IC90 (Staphylococcus aureus) [µg/mL]	IC50 (Alternaria solani) [µg/mL]	IC90 (Escherichia coli) [µg/mL]	IC50 (Pyricularia oryzae) [µg/mL]
CC[C@@H](C)[C@H](NC(=O)C(C)(C)NC(=O)[C@@H](NC(=O)C(C)(C)NC(=O)C(C)(C)NC(C)=O)C(C)C)C(=O)NC(C)(C)C(=O)NC(C)(C)C(=O)N[C@@H](C)C(=O)NC(C)(C)C(=O)N1CCC[C@H]1CO [ASPERELINE A]	> 500	> 100	> 500	> 100
CC[C@@H](C)[C@H](NC(=O)C(C)(C)NC(=O)[C@@H](NC(=O)C(C)(C)NC(=O)[C@H](C)NC(C)=O)C(C)C)C(=O)NC(C)(C)C(=O)NC(C)(C)C(=O)N[C@@H](C)C(=O)NC(C)(C)C(=O)N1CCC[C@H]1CO [ASPERELINE B]	> 500	> 100	> 500	> 100
CC[C@@H](C)[C@H](NC(=O)C(C)(C)NC(=O)[C@@H](NC(=O)C(C)(C)NC(=O)C(C)(C)NC(C)=O)C(C)C)C(=O)NC(C)(C)C(=O)N[C@@H](C)C(=O)N[C@@H](C)C(=O)NC(C)(C)C(=O)N1CCC[C@H]1CO [ASPERELINE C]	> 500	> 100	> 500	> 100
CC(=O)NC(C)(C)C(=O)NC(C)(C)C(=O)N[C@H](C(=O)NC(C)(C)C(=O)N[C@H](C(=O)NC(C)(C)C(=O)NC(C)(C)C(=O)N[C@@H](C)C(=O)NC(C)(C)C(=O)N1CCC[C@H]1CO)C(C)C)C(C)C [ASPERELINE D] (Ac-[Aib][Aib]V[Aib]V[Aib][Aib]A[Aib]-Prolinol)	> 500	> 100	> 500	> 100
CC[C@@H](C)[C@H](NC(=O)C(C)(C)NC(=O)[C@@H](NC(=O)C(C)(C)NC(=O)C(C)(C)NC(C)=O)C(C)C)C(=O)NC(C)(C)C(=O)NC(C)(C)C(=O)N[C@@H](CO)C(=O)NC(C)(C)C(=O)N1CCC[C@H]1CO [ASPERELINE E]	> 500	> 100	> 500	> 100
CC[C@@H](C)[C@H](NC(=O)C(C)(C)NC(=O)[C@@H](NC(=O)[C@@H](NC(=O)C(C)(C)NC(C)=O)C(C)C)C(C)C)C(=O)NC(C)(C)C(=O)NC(C)(C)C(=O)N[C@@H](C)C(=O)NC(C)(C)C(=O)N1CCC[C@H]1CO [ASPERELINE F]	> 500	> 100	> 500	> 100
